Tests used:
Assay in all cases: EUCAST 96-well plate fungal growth inhibition (MIC)
Format in all cases: cell-based
[1] = tested on: Aureobasidium pullulans (ATCC #9348); parameters: key to growth of Aureobasidium pullulans in 96-well plates: (+) in each block indicates growth; (−) indicates no growth, i.e., the inhibitor was effective; conditions: for MIC: Aureobasidium pullulans ATCC 9348, 3 days at 35° C.
Description: (§1) (A) 0.17 g of 60% DPAB aqueous solution (ProTek® PBT or Polymeric Betaine EP or Polymeric Betaine Technical Grade Active Ingredient Wood Preservative, Troy Chemical Corporation, Newark, N.J.) was diluted in 9.83 g ethanol by stirring to form a concentrate containing 1% DPAB.
(§2) (B) 0.25 g of 40% IPBC solvent solution (Polyphase® AF-1, Troy Chemical Corporation, Newark, N.J.) was diluted in 9.75 g ethanol by stirring to form a concentrate containing 1% IPBC.
(§3) (C) 21.04 g of 60% DPAB aqueous solution (ProTek® PBT or Polymeric Betaine EP or Polymeric Betaine Technical Grade Active Ingredient Wood Preservative, Troy Chemical Corporation, Newark, N.J.), 6.25 g of 40% IPBC solvent solution (Polyphase AF-1, Troy Chemical Corporation, Newark, N.J.) and 22.74 g of ethanol were mixed and stirred. The resulting concentrate contained 25% polymeric betaine and 5% IPBC. The weight ratio of polymeric betaine to IPBC was 5:1. 0.33 g of this IPBC/polymeric betaine concentrate was diluted in 9.67 g of ethanol to form a use-dilution containing about 0.83% DPAB and 0.17% IPBC.
(§4) Solutions prepared as described above were tested in 96-well plates for their ability to inhibit fungal growth. The solutions were tested according to the EUCAST methodology as described in Rodriguez-Tudela et al. 2006 “Antifungal susceptibility testing in Aspergillus spp. according to EUCAST methodology,” the contents of which are incorporated by reference herein. The solutions were checked for inhibition against fungal organisms Aspergillus niger (ATCC #6275), Aureobasidium pullulans (ATCC #9348), Penicillium funiculosum (ATCC #11797) and Trichoderma pseudokoningii (ATCC #26801). This method is described below:
(§5) (1) Prepared preservative test wells by adding 2 microliters of each 1% preservative solution formulation to 198 microliters of 2xRPMI-MOPS-2% Glucose in each column “1” in duplicate.
(§6) (2) Added 100 microliters of 2xRPMI-MOPS-2% Glucose to the remaining columns.
(§7) (3) Performed 2-fold dilutions down the columns to column “12”.
(§8) (4) Prepared suspension of microorganisms from a 3-5 day old PDA slants by flooding slant with 1 mL deionized water and 0.1% Tween-20.
(§9) (5) Suspension strength was determined via hemocytometer then adjusted to 1×10^6 spores/mL with sterile deionized water.
(§10) (6) Added 100 microliters of the microorganism suspension to all wells except for sterility (−) controls containing test media. The water used to prepare the fungal suspensions was added to sterility (−) control wells.
(§11) (7) The inoculated 96-well plates were incubated for 3 days at 35° C.
(§12) (8) After incubation, fungal growth was evaluated by visual growth in test wells. Minimum inhibitory concentration (MIC) is recorded in ppm and defined as the lowest concentration of fungicide that produces no visual changes in turbidity in the test wells. (+) in each block indicates growth and (−) indicates no growth, i.e., the inhibitor was effective.
(§13) (9) The experiment is only considered valid if growth is observed in the positive (+) control wells and no growth is observed in the negative control wells.
(§14) In order to show more directly the possible synergy in the invention, the results are presented by applying the Synergy Index (S.I.). Minimal inhibitory concentration of the composition of this invention (mixture of DPAB and IPBC) are analyzed using the following equation:
(§15) MCA=Concentration of compound A in parts per million, acting alone, which prevents fungal growth at the reference point
(§16) MCA′=Concentration of compound A in parts per million, in the mixture, which prevents fungal growth at the reference point
(§17) MCB=Concentration of compound B in parts per million, acting alone, which prevents fungal growth at the reference point
(§18) MCB′=Concentration of compound B in parts per million, in the mixture, which prevents fungal growth at the reference point
(§19) When SI is greater than 2, antagonism is indicated. […] When SI is between 0.5 and 2, the action of biocides is additive.

[2] = tested on: Penicillium funiculosum (ATCC #11797); parameters: key to growth of Penicillium funiculosum in 96-well plates: (+) in each block indicates growth; (−) indicates no growth, i.e., the inhibitor was effective; conditions: for MIC: Penicillium funiculosum ATCC 11797, 3 days at 35° C.
Description: as §1, §2, §3, §4, §5, §6, §7, §8, §9, §10, §11
(8) After incubation, fungal growth was evaluated by visual growth in test wells. Minimum inhibitory concentration (MIC) is recorded in ppm and defined as the lowest concentration of fungicide that produces no visual changes in turbidity in the test wells.
Minimal inhibitory concentration of the composition of this invention (mixture of DPAB and IPBC) are analyzed using the following equation:
as §15, §16, §17, §18, §19

[3] = tested on: Trichoderma pseudokoningii (ATCC #26801); parameters: key to growth of Trichoderma pseudokoningii in 96-well plates: (+) in each block indicates growth; (−) indicates no growth, i.e., the inhibitor was effective; conditions: for MIC: Trichoderma pseudokoningii ATCC 26801, 3 days at 35° C.
Description: as §1, §2, §3, §4, §5, §6, §7, §8, §9, §10, §11, §12, §13, §14, §15, §16, §17, §18, §19

| Compound | MIC [1] | growth of Aureobasidium pullulans in 96-well plates ([1]; well 1, 50.00 ppm active) | growth of Aureobasidium pullulans in 96-well plates ([1]; well 2, 25.00 ppm active) | growth of Aureobasidium pullulans in 96-well plates ([1]; well 3, 12.50 ppm active) | growth of Aureobasidium pullulans in 96-well plates ([1]; well 4, 6.25 ppm active) | growth of Aureobasidium pullulans in 96-well plates ([1]; well 5, 3.13 ppm active) | growth of Aureobasidium pullulans in 96-well plates ([1]; well 6, 1.56 ppm active) | growth of Aureobasidium pullulans in 96-well plates ([1]; well 7, 0.78 ppm active) | growth of Aureobasidium pullulans in 96-well plates ([1]; well 8, 0.39 ppm active) | growth of Aureobasidium pullulans in 96-well plates ([1]; well 9, 0.20 ppm active) | growth of Aureobasidium pullulans in 96-well plates ([1]; well 10, 0.10 ppm active) | growth of Aureobasidium pullulans in 96-well plates ([1]; well 11, 0.05 ppm active) | growth of Aureobasidium pullulans in 96-well plates ([1]; well 12, 0.02 ppm active) | MIC [2] | growth of Penicillium funiculosum in 96-well plates ([2]; well 1, concentration 50.00) | growth of Penicillium funiculosum in 96-well plates ([2]; well 2, concentration 25.00) | growth of Penicillium funiculosum in 96-well plates ([2]; well 3, concentration 12.50) | growth of Penicillium funiculosum in 96-well plates ([2]; well 4, concentration 6.25) | growth of Penicillium funiculosum in 96-well plates ([2]; well 5, concentration 3.13) | growth of Penicillium funiculosum in 96-well plates ([2]; well 6, concentration 1.56) | other results |
| --- | --- | --- | --- | --- | --- | --- | --- | --- | --- | --- | --- | --- | --- | --- | --- | --- | --- | --- | --- | --- | --- |
| CCCCNC(=O)OCC#CI [IPBC, 3-iodo-2-propynyl butyl carbamate] | 25.00 ppm | − | − | + | + | + | + | + | + | + | + | + | + | 0.78 ppm | − | − | − | − | − | − | growth of Penicillium funiculosum in 96-well plates ([2]; well 7, concentration 0.78): −; growth of Penicillium funiculosum in 96-well plates ([2]; well 8, concentration 0.39): +; growth of Penicillium funiculosum in 96-well plates ([2]; well 9, concentration 0.20): +; growth of Penicillium funiculosum in 96-well plates ([2]; well 11, concentration 0.05): +; growth of Penicillium funiculosum in 96-well plates ([2]; well 12, concentration 0.02): +; MIC [3]: 6.25 ppm; growth of Trichoderma pseudokoningii in 96-well plates ([3]; well 1, 50.00 ppm active): −; growth of Trichoderma pseudokoningii in 96-well plates ([3]; well 2, 25.00 ppm active): −; growth of Trichoderma pseudokoningii in 96-well plates ([3]; well 3, 12.50 ppm active): −; growth of Trichoderma pseudokoningii in 96-well plates ([3]; well 4, 6.25 ppm active): −; growth of Trichoderma pseudokoningii in 96-well plates ([3]; well 5, 3.13 ppm active): +; growth of Trichoderma pseudokoningii in 96-well plates ([3]; well 6, 1.56 ppm active): +; growth of Trichoderma pseudokoningii in 96-well plates ([3]; well 7, 0.78 ppm active): +; growth of Trichoderma pseudokoningii in 96-well plates ([3]; well 8, 0.39 ppm active): +; growth of Trichoderma pseudokoningii in 96-well plates ([3]; well 9, 0.20 ppm active): +; growth of Trichoderma pseudokoningii in 96-well plates ([3]; well 10, 0.10 ppm active): +; growth of Trichoderma pseudokoningii in 96-well plates ([3]; well 11, 0.05 ppm active): +; growth of Trichoderma pseudokoningii in 96-well plates ([3]; well 12, 0.02 ppm active): + |
| didecyl bis(hydroxyethyl) ammonium borate [DPAB] | 12.5 ppm | − | − | − | + | + | + | + | + | + | + | + | + | 6.25 ppm | − | − | − | − | + | + | growth of Penicillium funiculosum in 96-well plates ([2]; well 7, concentration 0.78): +; growth of Penicillium funiculosum in 96-well plates ([2]; well 8, concentration 0.39): +; growth of Penicillium funiculosum in 96-well plates ([2]; well 9, concentration 0.20): +; growth of Penicillium funiculosum in 96-well plates ([2]; well 10, concentration 0.10): +; growth of Penicillium funiculosum in 96-well plates ([2]; well 11, concentration 0.05): +; growth of Penicillium funiculosum in 96-well plates ([2]; well 12, concentration 0.02): +; MIC [3]: 25.00 ppm; growth of Trichoderma pseudokoningii in 96-well plates ([3]; well 1, 50.00 ppm active): −; growth of Trichoderma pseudokoningii in 96-well plates ([3]; well 2, 25.00 ppm active): −; growth of Trichoderma pseudokoningii in 96-well plates ([3]; well 3, 12.50 ppm active): +; growth of Trichoderma pseudokoningii in 96-well plates ([3]; well 4, 6.25 ppm active): +; growth of Trichoderma pseudokoningii in 96-well plates ([3]; well 5, 3.13 ppm active): +; growth of Trichoderma pseudokoningii in 96-well plates ([3]; well 6, 1.56 ppm active): +; growth of Trichoderma pseudokoningii in 96-well plates ([3]; well 7, 0.78 ppm active): +; growth of Trichoderma pseudokoningii in 96-well plates ([3]; well 8, 0.39 ppm active): +; growth of Trichoderma pseudokoningii in 96-well plates ([3]; well 9, 0.20 ppm active): +; growth of Trichoderma pseudokoningii in 96-well plates ([3]; well 10, 0.10 ppm active): +; growth of Trichoderma pseudokoningii in 96-well plates ([3]; well 11, 0.05 ppm active): +; growth of Trichoderma pseudokoningii in 96-well plates ([3]; well 12, 0.02 ppm active): + |
